The structures appear in SMILES notation. Entries after “also recorded” stand apart in the source; their conditions may differ.

The target of one test is T1, Ito (Homo sapiens, UniProt Q9UK17).
T1 sequence (Q9UK17 1-655): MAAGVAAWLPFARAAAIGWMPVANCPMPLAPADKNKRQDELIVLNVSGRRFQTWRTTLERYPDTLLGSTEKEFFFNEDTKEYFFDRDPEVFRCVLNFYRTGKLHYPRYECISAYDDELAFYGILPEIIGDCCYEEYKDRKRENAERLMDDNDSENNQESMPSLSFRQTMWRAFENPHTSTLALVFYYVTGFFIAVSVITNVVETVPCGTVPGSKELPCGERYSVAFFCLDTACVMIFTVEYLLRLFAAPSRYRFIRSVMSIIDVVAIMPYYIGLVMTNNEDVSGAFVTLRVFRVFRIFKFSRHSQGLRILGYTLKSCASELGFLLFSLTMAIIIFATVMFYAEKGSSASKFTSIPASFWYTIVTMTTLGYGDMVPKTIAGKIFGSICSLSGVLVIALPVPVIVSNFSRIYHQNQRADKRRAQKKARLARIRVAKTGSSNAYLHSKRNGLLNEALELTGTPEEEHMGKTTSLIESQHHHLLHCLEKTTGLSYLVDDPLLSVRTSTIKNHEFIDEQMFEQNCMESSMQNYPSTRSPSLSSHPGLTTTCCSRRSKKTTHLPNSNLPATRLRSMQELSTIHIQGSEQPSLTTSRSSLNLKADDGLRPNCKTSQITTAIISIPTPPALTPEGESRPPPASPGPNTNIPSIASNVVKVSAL
T1 sequence (Q9NS61 1-270 partner): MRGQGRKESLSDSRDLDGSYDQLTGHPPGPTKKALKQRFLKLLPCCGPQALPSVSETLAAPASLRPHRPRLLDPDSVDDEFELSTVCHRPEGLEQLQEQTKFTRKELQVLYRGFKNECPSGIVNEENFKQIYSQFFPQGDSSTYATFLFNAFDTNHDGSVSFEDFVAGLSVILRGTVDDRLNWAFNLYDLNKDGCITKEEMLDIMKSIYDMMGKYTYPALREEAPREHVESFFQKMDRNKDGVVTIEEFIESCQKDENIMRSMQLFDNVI
Briefly: Ito in human atrial myocytes, whole-cell patch clamp. The test is classed as cell-based. To be noted: for voltage-dependence of steady-state inactivation and activation of Ito, in words: 10 μM.

A further test deals with anesthetized dogs. Briefly: In vivo electrophysiology (atrial ERP, QTc) in anesthetized dogs. More on the design: species or system dog. As to conditions: 5 mg/kg intraduodenal, BCL 200 ms, pre-treatment (baseline).
The test system of a further test is IK1. Briefly: IK1 in guinea pig ventricular myocytes. To be noted: 30 and 100 μM. Format: cell-based. As for the experimental part: Guinea pigs of either gender (250-300 g) were sacrificed by cervical dislocation after anesthetization with pentobarbital (40 mg kg, i.p.). The procedure related to the use of animals in this invention was approved by the Animal Care and Use Committee for Teaching and Research of University of Hong Kong in accordance with the Guide for the Care and Use of Laboratory Animals (Institute of Laboratory Animal Resources, Commission on Life Sciences, National Research Council, 1996). Left atrial and ventricular myocytes from guinea pig hearts were enzymatically dissociated by the procedure described previously (Li et al., 2002a) and the isolated myocytes were kept in the K^+ storage medium.
The whole-cell patch-clamp technique was used for electrophysiological recording. Borosilicate glass electrodes (1.2-mm OD) were pulled with a Brown-Flamming puller (model P-97, Sutter Instrument Co, Novato, Calif., USA) and had tip resistances of 2-3 MΩ when filled with pipette solution. Membrane currents were recorded in voltage-clamp mode using an EPC-9 amplifier and Pulse software (HEKA, Lambrecht, Germany). A 3-M KCl-agar salt bridge was used as reference electrode. The tip potentials were compensated before the pipette touched the cell. […] The cell membrane capacitance (pF) was directly measured using the lock-in module of the Pulse software, and used for normalizing the current in individual cells. […]

For another test, the target named is hERG channels (Homo sapiens, UniProt Q12809). Briefly: cell-based.
Test [1] concerns the target IKs channels (hKCNQ1/hKCNE1) (Homo sapiens, UniProt P51787). Briefly: IKs in HEK 293 cells stably expressing hKCNQ1/hKCNE1. The test is classed as cell-based. To be noted: for inhibition of IKs amplitude, in words: 30 μM. As for the experimental part:
The established HEK 293 cell lines stably expressing the hERG channel gene, Kv1.5 (Tang et al., 2007), or recombinant human cardiac KCNQ1/KCNE1 channel current (IKs) (Dong et al., 2006) was maintained separately in Dulbecco's modified eagle medium (Invitrogen) supplemented with 10% fetal bovine serum and containing 400 μg/ml G418 (for hERG or Kv1.5 channels) or 100 μg/ml hygromycin (for IKs).
The whole-cell patch-clamp technique was used for electrophysiological recording. Borosilicate glass electrodes (1.2-mm OD) were pulled with a Brown-Flamming puller (model P-97, Sutter Instrument Co, Novato, Calif., USA) and had tip resistances of 2-3 MΩ when filled with pipette solution. Membrane currents were recorded in voltage-clamp mode using an EPC-9 amplifier and Pulse software (HEKA, Lambrecht, Germany). A 3-M KCl-agar salt bridge was used as reference electrode. The tip potentials were compensated before the pipette touched the cell. After a giga-ohm seal was obtained, the cell membrane was ruptured by gentle suction to establish the whole-cell configuration. The cell membrane capacitance (pF) was directly measured using the lock-in module of the Pulse software, and used for normalizing the current in individual cells. The series resistance (Rs) was 3-5 MΩ and was compensated by 50-70% to minimize voltage errors. Perforated patch configuration was used for recording action potential in human atrial cells and IKs in HEK 293 cells as described previously (Li et al., 2002b; Dong et al., 2006). Current signals were low-pass filtered at 5 kHz and stored on the hard disk of an IBM compatible computer.

Sequence of hERG channels (Q12809 whole entry): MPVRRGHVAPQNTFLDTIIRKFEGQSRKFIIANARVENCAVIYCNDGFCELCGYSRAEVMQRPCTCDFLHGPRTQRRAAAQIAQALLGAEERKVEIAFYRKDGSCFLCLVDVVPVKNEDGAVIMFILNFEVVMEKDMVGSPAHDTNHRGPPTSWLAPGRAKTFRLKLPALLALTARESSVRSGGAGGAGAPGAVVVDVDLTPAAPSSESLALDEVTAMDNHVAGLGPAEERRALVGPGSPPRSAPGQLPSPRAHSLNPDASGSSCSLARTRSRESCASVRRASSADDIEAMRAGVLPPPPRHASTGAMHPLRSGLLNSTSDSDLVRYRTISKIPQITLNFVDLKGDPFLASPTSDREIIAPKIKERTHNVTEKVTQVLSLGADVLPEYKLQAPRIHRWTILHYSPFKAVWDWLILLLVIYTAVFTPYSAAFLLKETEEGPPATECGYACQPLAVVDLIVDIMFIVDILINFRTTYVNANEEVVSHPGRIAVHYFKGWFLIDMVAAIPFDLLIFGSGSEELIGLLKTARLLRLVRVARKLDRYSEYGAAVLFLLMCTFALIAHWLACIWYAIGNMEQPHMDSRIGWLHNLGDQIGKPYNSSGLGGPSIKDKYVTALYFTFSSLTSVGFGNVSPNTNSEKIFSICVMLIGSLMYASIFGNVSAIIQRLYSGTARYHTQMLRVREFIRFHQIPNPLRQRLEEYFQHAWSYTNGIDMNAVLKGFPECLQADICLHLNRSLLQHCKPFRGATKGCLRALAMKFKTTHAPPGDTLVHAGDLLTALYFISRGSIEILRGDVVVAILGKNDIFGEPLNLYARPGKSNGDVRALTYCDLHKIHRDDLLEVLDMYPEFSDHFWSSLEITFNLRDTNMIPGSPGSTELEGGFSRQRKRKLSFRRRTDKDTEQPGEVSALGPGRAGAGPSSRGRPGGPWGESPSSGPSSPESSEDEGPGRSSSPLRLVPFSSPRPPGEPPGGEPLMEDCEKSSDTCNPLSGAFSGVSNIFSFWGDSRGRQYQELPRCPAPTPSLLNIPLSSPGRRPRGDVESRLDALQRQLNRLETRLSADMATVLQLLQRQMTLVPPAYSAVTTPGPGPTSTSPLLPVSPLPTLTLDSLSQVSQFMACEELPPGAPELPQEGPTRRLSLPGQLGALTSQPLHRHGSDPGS
Experimental for Ito: Atrial cells were isolated from specimens of human right atrial appendage obtained from patients (56.1±4.7 years old) undergoing coronary artery bypass grafting. […] After excision, the samples were quickly immersed in oxygenated, normally Ca^2+-free cardioplegic solution for transport to the laboratory. […] Briefly, the atrial tissue was minced, and gently agitated by continuous bubbling with 100% O2 in a Ca^2+-free Tyrode solution for 15 min (5 min at a time in fresh solutions), and then incubated for 50 min in a similar solution containing 150-200 U/ml collagenase (CLS II, Worthington Biochemical, Freehold, N.J., USA), 0.2 mg/ml protease (type XXIV, Sigma-Aldrich Chemical, St Louis, Mo., USA.) and 1 mg/ml bovine serum albumin (Sigma-Aldrich). After then, the chunks were re-incubated in a fresh enzyme solution of the same composition but no protease. The quantity and quality of isolated cells were monitored under a microscope. When the cell yield appeared optimal, the chunks were suspended in a high K medium containing (mM) 10 KCl, 120 K-glutamate, 10 KH2PO4, 1.8 MgSO4, 10 taurine, 10 HEPES, 0.5 EGTA, 20 glucose, 10 mannitol, pH was adjusted to 7.3 with KOH and gently blown with a pipette. The isolated myocytes were kept at room temperature in the medium at least 1 h before use.
The Ca^2+-free cardioplegic solution for specimen transport contained (in mM) 50 KH2PO4, 8 MgSO4, 5 adenosine, 10 HEPES, 140 glucose, 100 mannitol, 10 taurine, pH was adjusted to 7.3 with KOH. Tyrode solution contained (in mM) 140 NaCl, 5.4 KCl, 1 MgCl2, 1 CaCl2, 0.33 NaH2PO4, 10 HEPES, 10 glucose, pH was adjusted to 7.4 with NaOH. The pipette solution contained (in mM) 20 KCl, 110 K-aspartate, 1 MgCl2, 10 HEPES, 5 EGTA, 0.1 GTP, 5 Na2-phosphocreatine, and 5 Mg2-ATP, pH was adjusted to 7.2 with KOH. For Ito and IKur recording, BaCl2 (200 μM) and CdCl2 (200 μM) were added to the superfusion to block IK1 and ICa.L. Atropine (1.0 μM) was used to minimize possible IK.ACh contamination during the current recording. For ICa.L recording, K^+ in pipette and Tyrode solution was replaced by CsCl. INa was recorded under conditions of K^+-free and a symmetrical Na^+ (5 mM) in pipette and superfusion solutions as described previously (Li at al., 2002a).
A small aliquot of the solution containing the isolated cells was placed in an open perfusion chamber (1-ml) mounted on the stage of an inverted microscope. Myocytes were allowed to adhere to the bottom of the chamber for 5-10 min and were the superfused at 2-3 ml/min with Tyrode solution. Only quiescent rod-shaped cells with clear cross-striations were used. The studies were conducted at room temperature (21-22° C.) for current recording or 36° C. for action potential recording.
Experimental for anesthetized dogs: Adult mongrel dogs (12-15 kg) were anesthetized with pentobarbital (30 mg/kg i.v.), supplemented during the experiment when needed. The animal was intubated and ventilated with room air. Body temperature was maintained at 37-38° C. with a temperature control system. The left femoral vein was cannulated for maintenance of anesthesia and introducing the mono-phasic action potential (MAP) recording- and pacing-catheters (Boston Scientific Ltd) to the right atrium. The vagus nerves were isolated and divided in the neck. […] A left thoracotomy was performed in the fourth intercostal space, and the pericardium was incised to provide access to the left atrium for introducing the MAP catheter. The catheters were used for recording MAPs of right and left atria, respectively, and for measurement of effective refractory period (ERP). […] A ligation was made at the pylorus with a thick cotton thread to prevent the possible back flow of the duodenum content.
Following a 30-min equilibration period and measurement of atrial excitation threshold with 2-ms duration of stimuli, atrial ERP was determined using a train of 8 basic stimuli (S1, twice-diastolic threshold) followed by an identical premature stimulus (S2). The basic cycle lengths (BCL) of 200, 250 and 300 ms were applied in both right and left atria. S2 was initially delivered late in diastole in 5-ms decrements until a response was not elicited by the S2 indicated on the MAP recording. The ERP was defined as the longest S1-S2 interval failing a propagated response, and the procedure was repeated for three times for each measurement. MAP, ECG and blood pressure signals were continuously monitored and stored on an IBM compatible PC computer using a multiple channels data acquisition system (RM-6280C, Chengdu Instrument Ltd, Chendu, China).
The ERP measurement was then repeated every hour post drug administration for 6 hours. Excitation threshold of both right and left atria was verified before ERP each measurement. • 1.7.2.
The ERPs were determined in anesthetized dogs using the BCLs of 300, 250, and 200 ms by introducing S1-S2 via a programmed cardiac stimulator (FIG. 10A).

Consider `COc1ccc(-c2cc(=O)c3c(O)cc(O)cc3o2)cc1` [Acacetin, 5,7-dihydroxy-4′-methoxyflavone], for which the “voltage-dependence of steady-state inactivation and activation of Ito, in words” value at Ito is on record as “did not affect”; at Ito (listed as acacetin), “not affected; also recorded: without affecting”. Moreover, the “inhibition of voltage-dependent Ito, in words” value at Ito (3 and 10 μM, with 10 μM verapamil) is recorded as “substantially inhibited; also recorded: reduced”. Also, the “effect on Ito in human atrial myocytes, in words” value at Ito (extract fraction / isolated compound, concentration not given) is listed as “blocking effect”. The IC50 in the test with Ito (human atrial myocytes, +40 mV, IKur blocked with 10 μM verapamil, read-out: IC50 for inhibiting Ito) came to 9.2 µM; on hERG channels, 32.4 µM; in test [1] (HEK 293 cells, IKs.step, +40 mV, read-out: IC50 for inhibiting IKs), 81.4 µM. Further, the “right atrial ERP (ms), BCL 200 ms” value in the test on anesthetized dogs is 87.2 ± 7.9 ms. Besides, the “effect on IK1, in words” value was “no effect; also recorded: no inhibition” with IK1 and “no effects” in the test with IK1 (listed as acacetin). Also, the “inhibition of IKs amplitude, in words” value is recorded as “significantly inhibited” in test [1] and “inhibited” in test [1] (listed as acacetin).

Values taken from patent US7816400B2 (The University of Hong Kong, priority 2007, dated 2010).
